From the supplement of paper PMC10307832

Columns and labels:
Test in all cases: relative viability (nuclei count vs DMSO), 5 days (fraction); higher = more cells survive
Metformin + Foretinib = compound: CN(C)C(=N)NC(=N)N [Metformin] + COc1cc2c(Oc3ccc(NC(=O)C4(C(=O)Nc5ccc(F)cc5)CC4)cc3F)ccnc2cc1OCCCN1CCOCC1 [Foretinib] (partner 0.25 µM)
Outline: (§1)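 Lung cancer cell lines were pin-tool dosed in 1536-well plates on the day after seeding, with either a lone drug or a fixed anchor-drug dose plus five library-drug doses (not always all listed) in √10 steps. Nuclei were counted on 4× images after 5 days. Relative viability is the ratio of treated-well to vehicle-well nuclei counts, with each value a median of duplicate plates.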

Metformin + Lapatinib = compound: CN(C)C(=N)NC(=N)N [Metformin] + CS(=O)(=O)CCNCc1ccc(-c2ccc3ncnc(Nc4ccc(OCc5cccc(F)c5)c(Cl)c4)c3c2)o1 [Lapatinib] (partner 2 µM)
Outline: as §1

Apatinib + OSI-027 = compound: N#CC1(c2ccc(NC(=O)c3cccnc3NCc3ccncc3)cc2)CCCC1 [Apatinib] + COc1cccc2cc(-c3nc([C@H]4CC[C@H](C(=O)O)CC4)n4ncnc(N)c34)[nH]c12 [OSI-027] (partner 0.5 µM)
Outline: as §1

Apatinib + AZD7762 = compound: N#CC1(c2ccc(NC(=O)c3cccnc3NCc3ccncc3)cc2)CCCC1 [Apatinib] + NC(=O)Nc1cc(-c2cccc(F)c2)sc1C(=O)N[C@H]1CCCNC1 [AZD7762] (partner 0.2 µM)
Outline: as §1

| Cell Line | relative viability (Metformin + Foretinib; first compound 10 µM) | relative viability (Metformin + Foretinib; first compound 31.62 µM) | relative viability (Metformin + Foretinib; first compound 100 µM) | relative viability (Metformin + Foretinib; first compound 316.23 µM) | relative viability (Metformin + Foretinib; first compound 1000 µM) | relative viability (Metformin + Lapatinib; first compound 10 µM) | relative viability (Metformin + Lapatinib; first compound 31.62 µM) | relative viability (Metformin + Lapatinib; first compound 100 µM) | relative viability (Metformin + Lapatinib; first compound 316.23 µM) | relative viability (Metformin + Lapatinib; first compound 1000 µM) | relative viability (Apatinib + OSI-027; first compound 0.08 µM) | relative viability (Apatinib + OSI-027; first compound 0.253 µM) | relative viability (Apatinib + OSI-027; first compound 0.8 µM) | relative viability (Apatinib + OSI-027; first compound 2.53 µM) | relative viability (Apatinib + OSI-027; first compound 8 µM) | relative viability (Apatinib + AZD7762; first compound 0.08 µM) | relative viability (Apatinib + AZD7762; first compound 0.253 µM) | relative viability (Apatinib + AZD7762; first compound 0.8 µM) | relative viability (Apatinib + AZD7762; first compound 2.53 µM) | relative viability (Apatinib + AZD7762; first compound 8 µM) |
| --- | --- | --- | --- | --- | --- | --- | --- | --- | --- | --- | --- | --- | --- | --- | --- | --- | --- | --- | --- | --- |
| NCI-H358 | 0.726 | 0.723 | 0.658 | 0.732 | 0.813 | 0.409 | 0.671 | 0.616 | 0.58 | 0.602 | 0.898 | 0.789 | 0.772 | 0.706 | 0.692 | 0.548 | 0.573 | 0.475 | 0.45 | 0.343 |
| NCI-H2228 | 0.804 | 0.862 | 1.09 | 0.671 | 0.768 | 1.46 | 1.25 |  | 0.974 | 1.24 | 0.472 | 0.761 | 0.547 | 0.429 | 0.448 |  |  |  |  |  |
| EBC-1 | 0.0914 | 0.09 |  | 0.103 | 0.0951 | 0.182 | 0.181 | 0.23 | 0.281 | 0.248 |  |  |  |  |  |  |  |  |  |  |
| NCI-H520 | 0.765 | 0.74 | 0.783 | 0.703 | 0.953 | 0.849 | 1.07 | 0.948 | 0.768 | 0.892 | 0.262 | 0.229 | 0.219 | 0.25 | 0.224 |  |  |  |  |  |
| SK-LU-1 | 0.807 | 0.77 | 0.769 | 0.69 | 0.79 | 0.632 | 0.88 | 0.844 | 0.694 | 0.812 | 0.326 | 0.395 | 0.298 | 0.303 | 0.246 |  |  |  |  |  |
| NCI-H1648 |  |  |  |  |  |  |  |  |  |  | 0.272 | 0.253 | 0.265 | 0.267 | 0.261 | 0.937 | 0.667 | 0.612 | 0.567 | 0.601 |
| NCI-H522 |  |  |  |  |  |  |  |  |  |  | 0.731 | 0.752 | 0.703 | 0.72 | 0.691 | 0.884 | 1 | 0.867 | 0.623 | 0.794 |
| LCLC-103H | 0.823 | 1.09 | 0.881 | 0.781 | 0.923 |  |  |  |  |  | 0.495 | 0.477 | 0.384 | 0.401 | 0.457 | 0.801 | 0.741 | 0.858 | 0.7 | 0.75 |
| NCI-H1650 | 1.41 | 1.34 | 1.42 | 1.3 | 1.18 | 0.699 | 0.844 | 0.949 | 0.707 | 0.648 |  | 0.776 | 0.456 | 0.463 | 0.541 |  |  |  |  |  |
| NCI-H1792 |  |  |  |  |  |  | 0.87 | 1.03 | 0.795 | 0.864 | 0.778 | 0.659 | 0.693 | 0.475 | 0.439 | 0.881 | 0.68 | 0.528 | 0.508 | 0.211 |
| COR-L23 | 0.88 | 0.861 | 0.863 | 0.836 | 0.975 | 1.21 | 0.969 | 0.734 | 0.773 | 1.07 | 0.844 | 0.792 | 0.673 | 0.669 | 0.6 |  |  |  |  |  |
| COR-L 105 | 1.23 | 1.38 | 1.23 | 1.14 | 0.791 | 0.415 | 0.36 | 0.462 | 0.426 | 0.405 | 0.775 | 0.806 | 0.619 | 0.582 | 0.491 |  |  |  |  |  |
| Calu-6 | 0.809 | 0.878 | 0.917 | 0.795 | 0.821 | 0.864 | 1.03 | 0.979 | 0.913 | 1.03 |  |  |  |  |  |  |  |  |  |  |
| SW 900 | 0.919 | 0.884 | 0.736 | 0.846 | 0.882 |  |  |  |  |  | 0.563 | 0.605 | 0.497 | 0.545 | 0.412 | 0.656 | 0.587 | 0.563 | 0.374 | 0.401 |
| NCI-H1703 | 0.497 | 0.504 | 0.549 | 0.474 | 0.496 | 1.71 | 1.46 | 1.15 | 1.05 | 1.05 |  |  |  |  |  | 0.147 | 0.127 | 0.123 | 0.0918 | 0.127 |
| NCI-H2342 | 0.972 | 1.15 | 1.07 | 1 | 1.21 |  |  |  |  |  | 0.579 | 0.573 | 0.626 | 0.529 | 0.518 | 0.454 | 0.464 | 0.536 | 0.385 | 0.353 |
| NCI-H2009 | 1.21 | 1.31 | 1.31 | 1.13 | 1.04 | 0.574 | 0.98 | 1.01 | 0.889 | 0.991 | 0.796 | 0.617 | 0.536 | 0.337 | 0.193 |  |  |  |  |  |
| UMC-11 | 1.14 | 1.09 | 1.05 | 1.1 | 1.07 | 0.899 | 1.04 | 1.1 | 0.973 | 1.17 | 0.574 | 0.437 | 0.479 | 0.464 | 0.312 |  |  |  |  |  |
| SW 1573 | 0.955 | 1.04 | 0.914 | 0.788 | 1.1 | 1.1 | 1.09 | 1.09 | 1.03 | 1.18 | 0.71 | 0.636 | 0.553 | 0.593 | 0.518 |  |  |  |  |  |
| NCI-H1623 | 0.799 | 0.811 | 1.02 | 1.01 | 0.864 |  |  |  |  |  | 0.443 | 0.423 | 0.404 | 0.351 | 0.385 |  |  |  |  |  |
| NCI-H1563 | 0.99 | 1.02 | 1.09 | 1.01 | 1.05 | 0.999 | 0.912 | 1.02 | 0.924 | 0.783 | 0.812 | 0.865 | 0.731 | 0.706 | 0.718 |  |  |  |  |  |
| ChaGo-K-1 | 0.924 | 1.07 | 0.959 | 0.864 | 0.962 |  |  |  |  |  | 0.628 | 0.616 | 0.491 | 0.455 | 0.493 | 0.913 | 0.853 | 0.776 | 0.711 | 0.617 |
| IA-LM | 1.18 | 1.27 | 1.43 | 1.11 | 1.28 | 1.13 | 0.944 |  | 0.886 | 1.21 |  |  |  |  |  |  |  |  |  |  |
| HCC-44 |  |  |  |  |  | 1.05 | 0.976 | 1.03 | 0.939 | 1.03 | 0.457 | 0.524 | 0.395 | 0.446 | 0.522 | 1.03 | 1.01 | 0.983 | 0.96 | 0.947 |
